ChEMBL document CHEMBL1156293, “Synthesis of a novel tricyclic 1,2,3,4,4a,5,6,10b-octahydro-1,10-phenanthroline ring system and CXCR4 antagonists with potent activity against HIV-1” (Bioorg Med Chem Lett, 2010)

How the values were obtained:
[1] = Cytotoxicity against human HOS cells; type: cell-based
[2] = tested on: Human immunodeficiency virus 1; assay: Antiviral activity against HIV1 3B in human HOS cells expressing human […]/pHIV-LTR-luciferase assessed as blockade of viral infection into cells; type: functional, organism-based; conditions: Human immunodeficiency virus 1, 3B
[3] = Volume of distribution at steady state in rat at 1 mg/kg, iv; type: ADME, organism-based; parameters: dose 1 mg/kg, route intravenous; conditions: in vivo, read-out: Vdss
[4] = Volume of distribution at steady state in dog at 1 mg/kg, iv; type: ADME, organism-based, Canis lupus familiaris; parameters: dose 1 mg/kg, route intravenous; conditions: in vivo, read-out: Vdss
[5] = Half life in rat at 3 mg/kg, po; type: ADME, organism-based; parameters: dose 3 mg/kg, route oral; conditions: in vivo
[6] = Half life in dog at 3 mg/kg, po; type: ADME, organism-based, Canis lupus familiaris; parameters: dose 3 mg/kg, route oral; conditions: in vivo
[7] = tested on: Canis familiaris; assay: Dose normalized AUC in dog at 3 mg/kg, po; type: ADME, organism-based, Canis lupus familiaris; parameters: dose 3 mg/kg, route oral; conditions: in vivo
[8] = tested on: Rattus norvegicus; assay: Dose normalized AUC in rat at 3 mg/kg, po; type: ADME, organism-based; parameters: dose 3 mg/kg, route oral; conditions: in vivo

Compound	CC50 [1] [nM]	IC50 [2] [nM]	further results
CN(C)[C@@H]1CCN(c2cccc3nc(CN4CCC[C@H]5CCc6cccnc6[C@H]54)cn23)C1	1600	21	
c1cnc2c(c1)CC[C@@H]1CCCN(Cc3cn4c(N5CCN6CCCC6C5)cccc4n3)[C@H]21 (some centres undefined)	2980	2	
CN(C)CCCn1c(CN2CCC[C@@H]3CCc4cccnc4[C@H]32)nc2ccccc21	3500	140	
CN(C)CCCn1c(CN2CCC[C@H]3CCc4cccnc4[C@@H]32)nc2ccccc21	3700	330	
CN1CCN(c2cccc3nc(CN4CCCC5CCc6cccnc6C54)cn23)CC1 (racemic)	9600	32	
CN1CCN(c2cccc3nc(CN4CCC[C@@H]5CCc6cccnc6[C@@H]54)cn23)CC1	8500	100	
CN1CCC(N(C)c2cccc3nc(CN4CCC[C@H]5CCc6cccnc6[C@H]54)cn23)CC1	1300	38	
CN(C)CCCn1c(CN2CCC[C@H]3CCc4cccnc4[C@H]32)nc2ccccc21	6000	35	
CN1CCN(c2cccc3nc(CN4CCC[C@@H]5CCc6cccnc6[C@H]54)cn23)CC1	9900	50	
c1cnc2c(c1)CC[C@@H]1CCCN(Cc3cn4c(N5CCOCC5)cccc4n3)[C@H]21	6600	1200	
CN1CCN(c2cccc3nc(CN(C)[C@H]4CCCc5cccnc54)cn23)CC1			Vd [3]: 5.5 L/kg; Vd [4]: 7.6 L/kg; half-life [5]: 4.9 h; half-life [6]: 8.5 h; AUC [7]: 160 ng·h/mL/(mg/kg); AUC [8]: 100 ng·h/mL/(mg/kg)
CN1CCC(N(C)c2cccc3nc(CN4CCC[C@H]5CCc6cccnc6[C@H]54)cn23)C1 (some centres undefined)	1570	9	
CN(C)CCCn1c(CN2CCC[C@@H]3CCc4cccnc4[C@@H]32)nc2ccccc21	4200	530	
CN(C)CCN(C)c1cccc2nc(CN3CCC[C@H]4CCc5cccnc5[C@H]43)cn12	1450	5	
CN(C)C1CCN(c2cccc3nc(CN4CCC[C@H]5CCc6cccnc6[C@H]54)cn23)CC1	3850	15	
